{
  "source": "the NIST ThermoML archive (doi:10.1021/je4000845)",
  "conditions": "Crystal; visual observation",
  "note": "Numbers after ± are expanded uncertainties.",
  "data": [
    {"smiles": "Nc1cccc(C(=O)O)c1", "note": "[3-aminobenzoic acid]", "values": [
      {"measurement": "Normal melting temperature", "result": "174.1 ± 1", "unit": "°C"}
    ]}
  ]
}
